Experiments:
Settings in all cases: treatment: drug alone; 5 days
769-P [1] = assay: AUC of dose-response viability curve, drug alone (arbitrary (AUC of normalised viability)); higher = less growth inhibition
Description: (§1)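 Primary HTS: 8 RCC cell lines treated with 8 doses (up to 10 uM) of each library drug alone for 5 days; viability read by CellTiter-Glo and normalised to DMSO. GI50 was fitted with XLfit (4-parameter), AUC is the area under the dose-response curve, and minimum viability is the lowest fraction of DMSO viability across doses.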

UO-31 [2] = assay: as above
Description: as §1

ACHN [3] = assay: as above
Description: as §1

SN12C [4] = assay: as above
Description: as §1

TK-10 [5] = assay: as above
Description: as §1

786-O [6] = assay: as above
Description: as §1

CAKI-1 [7] = assay: as above
Description: as §1

A498 [8] = assay: as above
Description: as §1

769-P [9] = assay: minimum viability across doses, drug alone, relative to DMSO (fraction); higher = less growth inhibition
Description: as §1

UO-31 [10] = assay: as above
Description: as §1

ACHN [11] = assay: as above
Description: as §1

SN12C [12] = assay: as above
Description: as §1

TK-10 [13] = assay: as above
Description: as §1

786-O [14] = assay: as above
Description: as §1

CAKI-1 [15] = assay: as above
Description: as §1

A498 [16] = assay: as above
Description: as §1

769-P [17] = assay: GI50, drug alone; higher = less potent
Description: as §1

UO-31 [18] = assay: GI50, drug alone; higher = less potent
Description: as §1

ACHN [19] = assay: GI50, drug alone; higher = less potent
Description: as §1

SN12C [20] = assay: GI50, drug alone; higher = less potent
Description: as §1

TK-10 [21] = assay: GI50, drug alone; higher = less potent
Description: as §1

786-O [22] = assay: GI50, drug alone; higher = less potent
Description: as §1

CAKI-1 [23] = assay: GI50, drug alone; higher = less potent
Description: as §1

A498 [24] = assay: GI50, drug alone; higher = less potent
Description: as §1

For CO[C@H]1C[C@@H]2CC[C@@H](C)[C@@](O)(O2)C(=O)C(=O)N2CCCC[C@H]2C(=O)O[C@H]([C@H](C)C[C@@H]2CC[C@@H](OCCO)[C@H](OC)C2)CC(=O)[C@H](C)/C=C(\C)[C@@H](O)[C@@H](OC)C(=O)[C@H](C)C[C@H](C)/C=C/C=C/C=C/1C [Everolimus (RAD001)], the “AUC of dose-response viability curve” value (769-P [1]) was 2.37, the “AUC of dose-response viability curve” value (UO-31 [2]) was 1.96 and the “AUC of dose-response viability curve” value (ACHN [3]) was 1.85. For the same compound, the “AUC of dose-response viability curve” value (SN12C [4]) was 2.56, the “AUC of dose-response viability curve” value (TK-10 [5]) was 2.3 and the “AUC of dose-response viability curve” value (786-O [6]) was 1.21. For the same compound, the “AUC of dose-response viability curve” value (CAKI-1 [7]) was 2.14, the “AUC of dose-response viability curve” value (A498 [8]) was 3.45 and the “minimum viability across doses” value (769-P [9]) was 0.56. For the same compound, the “minimum viability across doses” value (UO-31 [10]) was 0.314, the “minimum viability across doses” value (ACHN [11]) was 0.39 and the “minimum viability across doses” value (SN12C [12]) was 0.631. For the same compound, the “minimum viability across doses” value (TK-10 [13]) was 0.538, the “minimum viability across doses” value (786-O [14]) was 0.293 and the “minimum viability across doses” value (CAKI-1 [15]) was 0.406. The “minimum viability across doses” value (A498 [16]) was 0.851, the “GI50, drug alone” value (769-P [17]) was greater than 10000 nM and the “GI50, drug alone” value (UO-31 [18]) was 99.2 nM. For the same compound, the “GI50, drug alone” value (ACHN [19]) was 278 nM, the “GI50, drug alone” value (SN12C [20]) was greater than 10000 nM and the “GI50, drug alone” value (TK-10 [21]) was greater than 10000 nM. For the same compound, the “GI50, drug alone” value (786-O [22]) was 3.85 nM, the “GI50, drug alone” value (CAKI-1 [23]) was 1180 nM and the “GI50, drug alone” value (A498 [24]) was greater than 10000 nM.

For CN1CC[C@H](c2c(O)cc(O)c3c(=O)cc(-c4ccccc4Cl)oc23)[C@H](O)C1.Cl [Flavopiridol hydrochloride], the “AUC of dose-response viability curve” value (769-P [1]) was 1.84, the “AUC of dose-response viability curve” value (UO-31 [2]) was 1.74 and the “AUC of dose-response viability curve” value (ACHN [3]) was 1.27. For the same compound, the “AUC of dose-response viability curve” value (SN12C [4]) was 1.63, the “AUC of dose-response viability curve” value (TK-10 [5]) was 1.57 and the “AUC of dose-response viability curve” value (786-O [6]) was 0.837. For the same compound, the “AUC of dose-response viability curve” value (CAKI-1 [7]) was 1.85, the “AUC of dose-response viability curve” value (A498 [8]) was 1.92 and the “minimum viability across doses” value (769-P [9]) was 0.0149. For the same compound, the “minimum viability across doses” value (UO-31 [10]) was 0.0096, the “minimum viability across doses” value (ACHN [11]) was 0.00461 and the “minimum viability across doses” value (SN12C [12]) was 0.0105. The “minimum viability across doses” value (TK-10 [13]) was 0.14, the “minimum viability across doses” value (786-O [14]) was 0.00454 and the “minimum viability across doses” value (CAKI-1 [15]) was 0.0716. For the same compound, the “minimum viability across doses” value (A498 [16]) was 0.0135, the “GI50, drug alone” value (769-P [17]) was 225 nM and the “GI50, drug alone” value (UO-31 [18]) was 125 nM. For the same compound, the “GI50, drug alone” value (ACHN [19]) was 70.7 nM, the “GI50, drug alone” value (SN12C [20]) was 174 nM and the “GI50, drug alone” value (TK-10 [21]) was 140 nM. For the same compound, the “GI50, drug alone” value (786-O [22]) was 36.9 nM, the “GI50, drug alone” value (CAKI-1 [23]) was 170 nM and the “GI50, drug alone” value (A498 [24]) was 262 nM.

For CC(C)NC[C@@H](C(=O)N1CCN(c2ncnc3c2[C@H](C)C[C@H]3O)CC1)c1ccc(Cl)cc1 [GDC-0068], the “AUC of dose-response viability curve” value (769-P [1]) was 3.51, the “AUC of dose-response viability curve” value (UO-31 [2]) was 3.66 and the “AUC of dose-response viability curve” value (ACHN [3]) was 2.85. The “AUC of dose-response viability curve” value (SN12C [4]) was 2.98, the “AUC of dose-response viability curve” value (TK-10 [5]) was 2.3 and the “AUC of dose-response viability curve” value (786-O [6]) was 1.88. The “AUC of dose-response viability curve” value (CAKI-1 [7]) was 3.21, the “AUC of dose-response viability curve” value (A498 [8]) was 4.05 and the “minimum viability across doses” value (769-P [9]) was 0.81. For the same compound, the “minimum viability across doses” value (UO-31 [10]) was 0.0182, the “minimum viability across doses” value (ACHN [11]) was 0.529 and the “minimum viability across doses” value (SN12C [12]) was 0.758. The “minimum viability across doses” value (TK-10 [13]) was 0.375, the “minimum viability across doses” value (786-O [14]) was 0.252 and the “minimum viability across doses” value (CAKI-1 [15]) was 0.52. The “minimum viability across doses” value (A498 [16]) was 0.82, the “GI50, drug alone” value (769-P [17]) was greater than 10000 nM and the “GI50, drug alone” value (UO-31 [18]) was 3090 nM. For the same compound, the “GI50, drug alone” value (ACHN [19]) was 9240 nM, the “GI50, drug alone” value (SN12C [20]) was greater than 10000 nM and the “GI50, drug alone” value (TK-10 [21]) was 2260 nM. For the same compound, the “GI50, drug alone” value (786-O [22]) was 251 nM, the “GI50, drug alone” value (CAKI-1 [23]) was 8110 nM and the “GI50, drug alone” value (A498 [24]) was greater than 10000 nM.

With OCCn1cc(-c2ccc3c(c2)CC/C3=N\O)c(-c2ccncc2)n1 [GDC-0879] the “AUC of dose-response viability curve” value (769-P [1]) was 3.52, the “AUC of dose-response viability curve” value (UO-31 [2]) was 5.03 and the “AUC of dose-response viability curve” value (ACHN [3]) was 3.54. The “AUC of dose-response viability curve” value (SN12C [4]) was 3.81, the “AUC of dose-response viability curve” value (TK-10 [5]) was 3.5 and the “AUC of dose-response viability curve” value (786-O [6]) was 2.97. The “AUC of dose-response viability curve” value (CAKI-1 [7]) was 4.13, the “AUC of dose-response viability curve” value (A498 [8]) was 4.12 and the “minimum viability across doses” value (769-P [9]) was 0.92. For the same compound, the “minimum viability across doses” value (UO-31 [10]) was 1.18, the “minimum viability across doses” value (ACHN [11]) was 0.745 and the “minimum viability across doses” value (SN12C [12]) was 0.999. The “minimum viability across doses” value (TK-10 [13]) was 0.937, the “minimum viability across doses” value (786-O [14]) was 0.716 and the “minimum viability across doses” value (CAKI-1 [15]) was 0.98. For the same compound, the “minimum viability across doses” value (A498 [16]) was 1.05, the “GI50, drug alone” value (769-P [17]) was greater than 10000 nM and the “GI50, drug alone” value (UO-31 [18]) was greater than 10000 nM. For the same compound, the “GI50, drug alone” value (ACHN [19]) was greater than 10000 nM, the “GI50, drug alone” value (SN12C [20]) was greater than 10000 nM and the “GI50, drug alone” value (TK-10 [21]) was greater than 10000 nM. The “GI50, drug alone” value (786-O [22]) was greater than 10000 nM, the “GI50, drug alone” value (CAKI-1 [23]) was greater than 10000 nM and the “GI50, drug alone” value (A498 [24]) was greater than 10000 nM.

From the supplement of paper PMC8149375
